# Measurements: patent US20250115598A1 (Anaxis Pharma Pty Ltd, priority 2021, published 2025)
# Key:
# [1] = target: human RIPK1 (Homo sapiens (Human), UniProt Q13546); test: KINOMEscan binding assay, human RIPK1; conditions: Table 21
# Protocol: (§1) Binding affinity of the test compounds for human MLKL (full length), mouse MLKL (full length), human RIPK1 and human RIPK3 was determined using the KINOMEscan™ technology developed by DiscoverX (USA; http://www.discoverx.com). The assay was conducted according to manufacturer instructions.
# (§2) Kinase assays. For most assays, kinase-tagged T7 phage strains were grown in parallel in 24-well blocks in an E. coli host derived from the BL21 strain. E. coli were grown to log-phase and infected with T7 phage from a frozen stock (multiplicity of infection=0.4) and incubated with shaking at 32° C. until lysis (90-150 minutes). The lysates were centrifuged (6,000×g) and filtered (0.2 μm) to remove cell debris. The remaining kinases were produced in HEK-293 cells and subsequently tagged with DNA for qPCR detection. […] The liganded beads were blocked with excess biotin and washed with blocking buffer (SeaBlock (Pierce), 1% BSA, 0.05% Tween 20, 1 mM DTT) to remove unbound ligand and to reduce non-specific phage binding. […] All reactions were performed in polypropylene 384-well plates in a final volume of 20 μL. […] The kinase concentration in the eluates was measured by qPCR.
# (§3) An 11-point 3-fold serial dilution of each test compound was prepared in 100% DMSO at 100× final test concentration and subsequently diluted to 1× in the assay (final DMSO concentration=1%). Most Kos were determined using a compound top concentration=30,000 nM.
# (§4) KD for each test compound was calculated with a standard dose-response curve using the Hill equation (equation (1)): […]
# (§5) The Hill Slope was set to −1.
# (§6) Curves were fitted using a non-linear least square fit with the Levenberg-Marquardt algorithm.
# [2] = target: human RIPK3 (Homo sapiens (Human), UniProt Q9Y572); test: KINOMEscan binding assay, human RIPK3; conditions: Table 21
# human RIPK3, sequence (Q9Y572 whole entry): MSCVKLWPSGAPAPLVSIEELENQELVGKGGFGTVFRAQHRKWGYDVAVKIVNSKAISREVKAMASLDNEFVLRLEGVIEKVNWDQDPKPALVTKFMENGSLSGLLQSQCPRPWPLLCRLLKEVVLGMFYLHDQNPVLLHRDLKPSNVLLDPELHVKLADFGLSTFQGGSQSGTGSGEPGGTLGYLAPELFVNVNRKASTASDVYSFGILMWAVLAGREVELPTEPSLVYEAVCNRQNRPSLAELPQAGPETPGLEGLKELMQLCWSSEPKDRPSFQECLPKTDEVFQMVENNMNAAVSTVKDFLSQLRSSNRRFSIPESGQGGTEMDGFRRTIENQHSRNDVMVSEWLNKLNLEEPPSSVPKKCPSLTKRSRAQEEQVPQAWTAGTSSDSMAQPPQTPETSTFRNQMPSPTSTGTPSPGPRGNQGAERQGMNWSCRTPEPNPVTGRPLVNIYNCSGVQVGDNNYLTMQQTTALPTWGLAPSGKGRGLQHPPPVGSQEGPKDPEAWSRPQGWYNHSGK
# Protocol: as §1, §2, §3, §4, §5, §6
# human RIPK1, sequence (Q13546 whole entry): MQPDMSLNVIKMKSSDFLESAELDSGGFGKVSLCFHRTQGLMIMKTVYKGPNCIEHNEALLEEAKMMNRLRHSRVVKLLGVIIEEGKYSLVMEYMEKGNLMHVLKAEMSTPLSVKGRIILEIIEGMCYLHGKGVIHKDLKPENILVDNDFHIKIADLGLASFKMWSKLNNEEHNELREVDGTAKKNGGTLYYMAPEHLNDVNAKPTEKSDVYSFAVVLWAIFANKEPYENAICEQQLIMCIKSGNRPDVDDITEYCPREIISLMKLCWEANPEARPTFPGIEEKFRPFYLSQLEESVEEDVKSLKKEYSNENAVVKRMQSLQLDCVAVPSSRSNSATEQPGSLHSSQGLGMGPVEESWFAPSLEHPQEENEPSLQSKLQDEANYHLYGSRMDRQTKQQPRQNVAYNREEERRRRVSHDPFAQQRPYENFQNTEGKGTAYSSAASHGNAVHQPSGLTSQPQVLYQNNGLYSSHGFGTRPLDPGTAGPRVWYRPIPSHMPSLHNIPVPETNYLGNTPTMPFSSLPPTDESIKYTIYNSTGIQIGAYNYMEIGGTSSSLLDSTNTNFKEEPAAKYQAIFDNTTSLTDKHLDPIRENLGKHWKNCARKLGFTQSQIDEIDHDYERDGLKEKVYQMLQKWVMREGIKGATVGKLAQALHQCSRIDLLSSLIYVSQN
Kd [1],Kd [2],SMILES
> 10 µM,> 10 µM,"C[C@H](Oc1cc(-c2nn(C)c3c(-c4ccnc(C(F)(F)F)c4)cnc(N)c23)ccc1NS(=O)(=O)C(F)F)c1ccc(F)cc1 [Compound 23, (S)-N-(4-(4-amino-1-methyl-7-(2-(trifluoromethyl)pyridin-4-yl)-1H-pyrazolo[4,3-c]pyridin-3-yl)-2-(1-(4-fluorophenyl)ethoxy)phenyl)-1,1-difluoromethanesulfonamide]"
> 10 µM,> 10 µM,"COc1cc(-c2cnc(N)c3c(-c4ccc(NS(=O)(=O)C(F)F)c(O[C@@H](C)c5ccc(F)cc5)c4)nn(C)c23)ccn1 [Compound 27, (S)-N-(4-(4-amino-7-(2-methoxypyridin-4-yl)-1-methyl-1H-pyrazolo[4,3-c]pyridin-3-yl)-2-(1-(4-fluorophenyl)ethoxy)phenyl)-1,1-difluoromethanesulfonamide]"
> 10 µM,> 10 µM,"Cc1noc(C)c1-c1cnc(N)c2c(-c3ccc(NS(=O)(=O)C(F)F)c(O[C@@H](C)c4ccc(F)cc4)c3)nn(C)c12 [Compound 33, (S)-N-(4-(4-amino-7-(3,5-dimethylisoxazol-4-yl)-1-methyl-1H-pyrazolo[4,3-c]pyridin-3-yl)-2-(1-(4-fluorophenyl)ethoxy)phenyl)-1,1-difluoromethanesulfonamide]"
> 10 µM,> 10 µM,"C[C@H](Oc1cc(-c2nn(C)c3c(C4=CCOCC4)cnc(N)c23)ccc1NS(=O)(=O)C(F)F)c1ccc(F)cc1 [Compound 43, (S)-N-(4-(4-amino-7-(3,6-dihydro-2H-pyran-4-yl)-1-methyl-1H-pyrazolo[4,3-c]pyridin-3-yl)-2-(1-(4-fluorophenyl)ethoxy)phenyl)-1,1-difluoromethanesulfonamide]"
> 10 µM,> 10 µM,"C[C@H](Oc1cc(-c2nn(C)c3c(-c4ccnc(N(C)C)c4)cnc(N)c23)ccc1NS(=O)(=O)C(F)F)c1ccc(F)cc1 [Compound 49, (S)-N-(4-(4-amino-7-(2-(dimethylamino)pyridin-4-yl)-1-methyl-1H-pyrazolo[4,3-c]pyridin-3-yl)-2-(1-(4-fluorophenyl)ethoxy)phenyl)-1,1-difluoromethanesulfonamide]"
> 10 µM,> 10 µM,"CC(C)n1nc(-c2ccc(NS(=O)(=O)C(F)F)c(O[C@@H](C)c3ccc(F)cc3)c2)c2c(N)ncc(-c3cnn(C)c3)c21 [Compound 52, (S)-N-(4-(4-amino-1-isopropyl-7-(1-methyl-1H-pyrazol-4-yl)-1H-pyrazolo[4,3-c]pyridin-3-yl)-2-(1-(4-fluorophenyl)ethoxy)phenyl)-1,1-difluoromethane-sulfonamide]"
> 10 µM,0.1 to 10 µM,"C[C@H](Oc1cc(-c2nn(C)c3c(-c4ccnc(C(F)F)c4)cnc(N)c23)ccc1NS(=O)(=O)C(F)F)c1ccc(F)cc1 [Compound 57, (S)-N-(4-(4-amino-7-(2-(difluoromethyl)pyridin-4-yl)-1-methyl-1H-pyrazolo[4,3-c]pyridin-3-yl)-2-(1-(4-fluorophenyl)ethoxy)phenyl)-1,1-difluoromethanesulfonamide]"
> 10 µM,> 10 µM,"C[C@H](Oc1cc(-c2nn(C)c3c(-c4cc(C#N)n(C)c4)cnc(N)c23)ccc1NS(=O)(=O)C(F)F)c1ccc(F)cc1 [Compound 83, (S)-N-(4-(4-amino-7-(5-cyano-1-methyl-1H-pyrrol-3-yl)-1-methyl-1H-pyrazolo[4,3-c]pyridin-3-yl)-2-(1-(4-fluorophenyl)ethoxy)phenyl)-1,1-difluoromethanesulfonamide]"

# Further lines, the compound ahead of its results:
SMILES,Kd [1],Kd [2]
"Nc1ncc(-c2cnn(C3CCOCC3)c2)c2occ(-c3ccc(NS(=O)(=O)CC(F)(F)F)c(OCc4ccc(F)cc4)c3)c12 [Compound 11, N-(4-(4-amino-7-(1-(tetrahydro-2H-pyran-4-yl)-1H-pyrazol-4-yl)furo[3,2-c]pyridin-3-yl)-2-((4-fluorobenzyl)oxy)phenyl)-2,2,2-trifluoroethane-1-sulfonamide]",> 10 µM,> 10 µM
"C[C@H](Oc1cc(-c2cnn3ccnc(N)c23)ccc1NS(=O)(=O)C(F)F)c1ccc(F)cc1 [Compound 22, (S)—N-(4-(4-aminopyrazolo[1,5-a]pyrazin-3-yl)-2-(1-(4-fluorophenyl)ethoxy)phenyl)-1,1-difluoromethanesulfonamide]",> 10 µM,> 10 µM
"C[C@H](Oc1cc(-c2nn(C)c3c(-c4cnn(C5CCCC5)c4)cnc(N)c23)ccc1NS(=O)(=O)C(F)F)c1ccc(F)cc1 [Compound 30, (S)-N-(4-(4-amino-7-(1-cyclopentyl-1H-pyrazol-4-yl)-1-methyl-1H-pyrazolo[4,3-c]pyridin-3-yl)-2-(1-(4-fluorophenyl)ethoxy)phenyl)-1,1-difluoromethanesulfonamide]",> 10 µM,0.1 to 10 µM
"C[C@H](Oc1cc(-c2nn(C)c3c(Cc4ccccc4)cnc(N)c23)ccc1NS(=O)(=O)C(F)F)c1ccc(F)cc1 [Compound 34, (S)-N-(4-(4-amino-7-benzyl-1-methyl-1H-pyrazolo[4,3-c]pyridin-3-yl)-2-(1-(4-fluorophenyl)ethoxy)phenyl)-1,1-difluoromethanesulfonamide]",> 10 µM,> 10 µM
"C[C@H](Oc1cc(-c2nn(C)c3c(C4CCN(C)CC4)cnc(N)c23)ccc1NS(=O)(=O)C(F)F)c1ccc(F)cc1 [Compound 42, (S)—N-(4-(4-amino-1-methyl-7-(1-methylpiperidin-4-yl)-1H-pyrazolo[4,3-c]pyridin-3-yl)-2-(1-(4-fluorophenyl)ethoxy)phenyl)-1,1-difluoromethanesulfonamide]",> 10 µM,> 10 µM
"C[C@H](Oc1cc(-c2nn(C)c3c(-c4cnn(C5CCOCC5)c4)cnc(N)c23)ccc1NS(=O)(=O)CC(F)(F)F)c1ccc(F)cc1 [Compound 44, (S)—N-(4-(4-amino-1-methyl-7-(1-(tetrahydro-2H-pyran-4-yl)-1H-pyrazol-4-yl)-1H-pyrazolo[4,3-c]pyridin-3-yl)-2-(1-(4-fluorophenyl)ethoxy)phenyl)-2,2,2-trifluoroethane-1-sulfonamide]",> 10 µM,> 10 µM
"CCS(=O)(=O)Nc1ccc(-c2nn(C)c3c(-c4cnn(C5CCOCC5)c4)cnc(N)c23)cc1O[C@@H](C)c1ccc(F)cc1 [Compound 45, (S)-N-(4-(4-amino-1-methyl-7-(1-(tetrahydro-2H-pyran-4-yl)-1H-pyrazol-4-yl)-1H-pyrazolo[4,3-c]pyridin-3-yl)-2-(1-(4-fluorophenyl)ethoxy)phe-nyl)ethanesulfonamide]",> 10 µM,0.1 to 10 µM
"CC(C)n1nc(-c2ccc(NS(=O)(=O)C(F)F)c(O[C@@H](C)c3ccc(F)cc3)c2)c2c(N)ncc(-c3cnn(C4CCOCC4)c3)c21 [Compound 51, (S)-N-(4-(4-amino-1-isopropyl-7-(1-(tetrahydro-2H-pyran-4-yl)-1H-pyrazol-4-yl)-1H-pyrazolo[4,3-c]pyridin-3-yl)-2-(1-(4-fluorophenyl)ethoxy)phenyl)-1,1-difluoromethane-sulfonamide]",> 10 µM,> 10 µM
"C[C@H](Oc1cc(-c2nn(C)c3c(-c4cnn(C5CCN(CC(F)(F)F)CC5)c4)cnc(N)c23)ccc1NS(=O)(=O)C(F)F)c1ccc(F)cc1 [Compound 61, (S)-N-(4-(4-amino-1-methyl-7-(1-(1-(2,2,2-trifluoroethyl)piperidin-4-yl)-1H-pyrazol-4-yl)-1H-pyrazolo[4,3-c]pyridin-3-yl)-2-(1-(4-fluorophenyl)ethoxy)phenyl)-1,1-difluoromethanesulfonamide]",> 10 µM,> 10 µM
"CCS(=O)(=O)Nc1ccc(-c2ncn3ccnc(N)c23)cc1OCc1ccc(F)cc1 [Compound 63, N-(4-(8-Aminoimidazo[1,5-a]pyrazin-1-yl)-2-((4-fluorophenyl)methoxy)phenyl) ethane-1-sulfonamide]",> 10 µM,> 10 µM
"CCS(=O)(=O)Nc1ccc(-c2cnn3ccnc(N)c23)cc1OCc1ccc(F)cc1 [Compound 64, N-(4-(4-Aminopyrazolo[1,5-a]pyrazin-3-yl)-2-((4-fluorophenyl)methoxy)phenyl)ethane-1-sulfonamide]",> 10 µM,> 10 µM
"Nc1n[nH]c2ccnc(-c3ccc(NS(=O)(=O)CC(F)(F)F)c(OCc4ccc(F)cc4)c3)c12 [Compound 65, N-(4-(3-amino-1H-pyrazolo[4,3-c]pyridin-4-yl)-2-((4-fluorophenyl)methoxy)phenyl)-2,2,2-trifluoroethane-1-sulfonamide]",> 10 µM,> 10 µM
"Nc1n[nH]c2ccnc(-c3ccc(NS(=O)(=O)C(F)F)c(OCc4ccc(F)cc4)c3)c12 [Compound 68, N-(4-(3-amino-1H-pyrazolo[4,3-c]pyridin-4-yl)-2-((4-fluorophenyl)methoxy)phenyl)-1,1-difluoromethanesulfonamide]",> 10 µM,> 10 µM
"C[C@H](Oc1cc(-c2nn(C)c3c(-c4cnn(C5CCCNCC5)c4)cnc(N)c23)ccc1NS(=O)(=O)C(F)F)c1ccc(F)cc1 (stereo partly drawn) [Compound 74, N-(4-(4-amino-7-(1-(azepan-4-yl)-1H-pyrazol-4-yl)-1-methyl-1H-pyrazolo[4,3-c]pyridin-3-yl)-2-((S)-1-(4-fluorophenyl)ethoxy)phenyl)-1,1-difluoromethane-sulfonamide]",> 10 µM,> 10 µM
